In PMC8632988, “Inhibition of SYK and cSrc kinases can protect bone and cartilage in preclinical models of osteoarthritis and rheumatoid arthritis” (Scientific Reports, 2021):
Several values for one entry are separate records, joined by “and”; a condition that tells them apart may be missing. Identical values can stand only once.

Assays:
[1] = target: T1, PAK3 (Homo sapiens, UniProt O75914); assay: Kinase selectivity profile assay; format: biochemical; conditions: 500 nM; relative to DMSO; read-out: Residual enzymatic activity
T1 construct: purchased Reaction Biology Corporation
Source text: (§1) Kinase activity data was expressed as the percent remaining kinase activity in test samples compared to vehicle (dimethyl sulfoxide) reactions based on the radioactivity of reaction products (see Table S2). Experiment was replicated twice.

[2] = target: T2, PYK2 (Homo sapiens, UniProt Q14289); assay: Kinase selectivity profile assay; format: biochemical; conditions: 500 nM; relative to DMSO; read-out: Residual enzymatic activity
T2 construct: purchased Reaction Biology Corporation
Source text: as §1

[3] = target: T3, JAK2 (Homo sapiens, UniProt O60674); assay: Kinase selectivity profile assay; format: biochemical
T3 construct: purchased Reaction Biology Corporation (assay service)
Source text: as §1

[4] = target: T4, SIK2 (Homo sapiens, UniProt Q9H0K1); assay: Kinase selectivity profile assay; format: biochemical
T4 construct: purchased Reaction Biology Corporation (Malvern, PA, USA)
Source text: as §1

[5] = target: T5, NEK2 (Homo sapiens, UniProt P51955); assay: Kinase selectivity profile assay; format: biochemical; conditions: 500 nM; relative to DMSO; read-out: Residual enzymatic activity
T5 construct: purchased Reaction Biology Corporation
Source text: as §1

[6] = target: T6, IKKa/CHUK (Homo sapiens, UniProt O15111); assay: Kinase selectivity profile assay; format: biochemical; conditions: 500 nM; relative to DMSO; read-out: Residual enzymatic activity
T6 construct: purchased Reaction Biology Corporation
Source text: as §1

[7] = target: T7, KDR/VEGFR2 (Homo sapiens, UniProt P35968); assay: Kinase selectivity profile assay; format: biochemical; conditions: 500 nM, relative to DMSO
T7 construct: purchased Reaction Biology Corporation
Source text: as §1

[8] = target: T8, ROS/ROS1 (Homo sapiens, UniProt P08922); assay: Kinase selectivity profile assay; format: biochemical
T8 construct: purchased Reaction Biology Corporation (Malvern, PA, USA)
Source text: as §1

[9] = target: T9, FYN (Homo sapiens, UniProt P06241); assay: Kinase selectivity profile assay; format: biochemical
T9 construct: purchased Reaction Biology Corporation (assay service)
Source text: as §1

[10] = target: T10, CAMK1d (Homo sapiens, UniProt Q8IU85); assay: Kinase selectivity profile assay; format: biochemical; conditions: 500 nM; relative to DMSO; read-out: Residual enzymatic activity
T10 construct: purchased Reaction Biology Corporation
Source text: as §1

[11] = target: T11, MARK2/PAR-1Ba (Homo sapiens, UniProt Q7KZI7); assay: Kinase selectivity profile assay; format: biochemical; conditions: 500 nM; relative to DMSO; read-out: Residual enzymatic activity
T11 construct: purchased Reaction Biology Corporation
Source text: as §1

[12] = target: T12, TRKC (Homo sapiens, UniProt Q16288); assay: Kinase selectivity profile assay; format: biochemical; conditions: 500 nM; relative to DMSO; read-out: Residual enzymatic activity
T12 construct: purchased Reaction Biology Corporation
Source text: as §1

[13] = target: T13, CAMK1a (Homo sapiens, UniProt Q14012); assay: Kinase selectivity profile assay; format: biochemical; conditions: 500 nM; relative to DMSO; read-out: Residual enzymatic activity
T13 construct: purchased Reaction Biology Corporation
Source text: as §1

[14] = target: T14, PAK1 (Homo sapiens, UniProt Q13153); assay: Kinase selectivity profile assay; format: biochemical; conditions: 500 nM; relative to DMSO; read-out: Residual enzymatic activity
T14 construct: purchased Reaction Biology Corporation
Source text: as §1

[15] = target: T15, MLK3/MAP3K11 (Homo sapiens, UniProt Q16584); assay: Kinase selectivity profile assay; format: biochemical
T15 construct: purchased Reaction Biology Corporation (Malvern, PA, USA)
Source text: as §1

[16] = target: T16, TLK2 (Homo sapiens, UniProt Q86UE8); assay: Kinase selectivity profile assay; format: biochemical; conditions: 500 nM; relative to DMSO; read-out: Residual enzymatic activity
T16 construct: purchased Reaction Biology Corporation
Source text: as §1

[17] = target: T17, FES/FPS (Homo sapiens, UniProt P07332); assay: Kinase selectivity profile assay; format: biochemical; conditions: 500 nM; relative to DMSO; read-out: Residual enzymatic activity
T17 construct: purchased Reaction Biology Corporation
Source text: as §1

[18] = target: T18, RET (Homo sapiens, UniProt P07949); assay: Kinase selectivity profile assay; format: biochemical
T18 construct: purchased Reaction Biology Corporation (Malvern, PA, USA)
Source text: as §1

[19] = target: T19, JNK1 (Homo sapiens, UniProt P45983); assay: Kinase selectivity profile assay; format: biochemical; conditions: 500 nM; relative to DMSO; read-out: Residual enzymatic activity
T19 construct: purchased Reaction Biology Corporation
Source text: as §1

[20] = target: T20, FGFR2 (Homo sapiens, UniProt P21802); assay: Kinase selectivity profile assay; format: biochemical; conditions: 500 nM, relative to DMSO
T20 construct: purchased Reaction Biology Corporation
Source text: as §1

[21] = target: T21, TSSK3/STK22C (Homo sapiens, UniProt Q96PN8); assay: Kinase selectivity profile assay; format: biochemical; conditions: 500 nM; relative to DMSO; read-out: Residual enzymatic activity
T21 construct: purchased Reaction Biology Corporation
Source text: as §1

[22] = target: T22, LCK (Homo sapiens, UniProt P06239); assay: Kinase selectivity profile assay; format: biochemical
T22 construct: purchased Reaction Biology Corporation (assay service)
Source text: as §1

[23] = target: T23, JNK2 (Homo sapiens, UniProt P45984); assay: Kinase selectivity profile assay; format: biochemical; conditions: 500 nM; relative to DMSO; read-out: Residual enzymatic activity
T23 construct: purchased Reaction Biology Corporation
Source text: as §1

[24] = target: T24, PKG2/PRKG2 (Homo sapiens, UniProt Q13237); assay: Kinase selectivity profile assay; format: biochemical; conditions: 500 nM; relative to DMSO; read-out: Residual enzymatic activity
T24 construct: purchased Reaction Biology Corporation
Source text: as §1

[25] = target: T25, Aurora A (Homo sapiens, UniProt O14965); assay: Kinase selectivity profile assay; format: biochemical; conditions: 500 nM; relative to DMSO; read-out: Residual enzymatic activity
T25 construct: purchased Reaction Biology Corporation
Source text: as §1

[26] = test system: SYK-mediated signaling in human B-cell lymphoma cells; assay: Detection of SYK activity in cells by Western blot; format: cell-based; conditions: 1, 3, 10 uM
Protocol: Western blot was performed at A. N. Bakh Institute of Biochemistry, Russia. Human B-cell lymphoma cells obtained from Russian collection cell cultures (RCCC) were cultured in 5% CO2 humidified atmosphere at 37 °C in RPMI 1640 supplemented with 100 U mL^–1 penicillin/streptomycin and 10% heat inactivated FBS. P3H3 cells (10^6 cells in 1 ml of RPMI media with 5% FBS) were incubated with test compound or vehicle control (DMSO, 1%) for one hour at 37 °C in a 5% CO2-incubator. Then anti-IgM (1 μg/mL) was added to activate B-cell receptors and incubation continued for additional 15 min. After that the cells were washed with cooled PBS buffer and were lysed in 200 μL of ice-cold lysis buffer (62,5 mM Tris–HCl, pH 6.8, 2% w/v SDS, 10% glycerin, 50 mM DTT, 0,01% w/v BPB). Then lysates were sonicated for 20 s in ice, heated to 95–100 °C for 5 min and centrifuged for 5 min. 20 μL of obtained samples were electrophoresed on 10% SDS–polyacrylamide gel (gel blocks: 90 × 60 × 1.5 mm; current intensity: 30 mA, time: 2.5–3 h) and transferred to nitrocellulose membranes (BioRad). Western blotting was carried out according to the Amersham Pharmacia Biotech ECL Western blotting protocol. […]

[27] = 500 nM, relative to DMSO, read-out: Residual enzymatic activity
[28] = 10-dose mode, threefold serial dilution from 10 μM
[29] = read-out: Residual enzymatic activity

T4 sequence (Q9H0K1 whole entry): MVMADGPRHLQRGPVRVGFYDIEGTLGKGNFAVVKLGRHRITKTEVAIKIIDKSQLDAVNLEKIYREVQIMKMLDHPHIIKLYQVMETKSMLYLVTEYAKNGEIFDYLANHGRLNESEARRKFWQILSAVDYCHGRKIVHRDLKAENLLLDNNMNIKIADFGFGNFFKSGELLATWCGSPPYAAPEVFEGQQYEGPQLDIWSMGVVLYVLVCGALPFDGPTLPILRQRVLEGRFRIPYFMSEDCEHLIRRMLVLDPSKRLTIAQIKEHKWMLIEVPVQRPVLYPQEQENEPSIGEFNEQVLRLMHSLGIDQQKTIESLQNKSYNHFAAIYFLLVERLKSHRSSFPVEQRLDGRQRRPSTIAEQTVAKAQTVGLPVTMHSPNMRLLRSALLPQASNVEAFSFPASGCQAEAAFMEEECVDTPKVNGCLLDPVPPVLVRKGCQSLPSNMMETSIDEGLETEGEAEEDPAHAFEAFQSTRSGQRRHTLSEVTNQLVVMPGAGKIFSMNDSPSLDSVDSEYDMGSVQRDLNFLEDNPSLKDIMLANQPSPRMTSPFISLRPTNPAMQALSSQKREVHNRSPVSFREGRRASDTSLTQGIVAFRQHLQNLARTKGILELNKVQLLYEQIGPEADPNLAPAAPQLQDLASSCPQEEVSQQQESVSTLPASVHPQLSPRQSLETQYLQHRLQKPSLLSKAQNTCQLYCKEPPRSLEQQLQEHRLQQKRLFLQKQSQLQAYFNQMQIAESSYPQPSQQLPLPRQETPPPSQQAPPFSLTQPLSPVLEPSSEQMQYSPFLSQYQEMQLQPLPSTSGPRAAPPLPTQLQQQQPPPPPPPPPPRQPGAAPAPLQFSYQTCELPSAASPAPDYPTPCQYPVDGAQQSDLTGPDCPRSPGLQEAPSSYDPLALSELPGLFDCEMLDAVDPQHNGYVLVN
T22 sequence (P06239 whole entry): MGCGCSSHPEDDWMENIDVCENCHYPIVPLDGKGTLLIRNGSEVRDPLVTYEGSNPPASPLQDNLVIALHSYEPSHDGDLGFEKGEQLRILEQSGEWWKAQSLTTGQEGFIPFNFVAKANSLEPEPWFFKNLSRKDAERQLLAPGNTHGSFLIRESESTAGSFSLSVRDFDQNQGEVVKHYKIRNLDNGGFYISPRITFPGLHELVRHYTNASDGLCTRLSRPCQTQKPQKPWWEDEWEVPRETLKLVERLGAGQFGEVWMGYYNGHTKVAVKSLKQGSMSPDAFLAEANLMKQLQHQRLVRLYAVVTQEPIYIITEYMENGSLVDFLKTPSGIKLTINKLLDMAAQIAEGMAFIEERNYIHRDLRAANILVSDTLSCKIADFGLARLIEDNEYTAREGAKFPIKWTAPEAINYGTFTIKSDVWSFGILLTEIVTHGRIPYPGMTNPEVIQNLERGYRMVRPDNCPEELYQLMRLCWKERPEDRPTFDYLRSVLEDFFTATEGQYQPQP
T15 sequence (Q16584 whole entry): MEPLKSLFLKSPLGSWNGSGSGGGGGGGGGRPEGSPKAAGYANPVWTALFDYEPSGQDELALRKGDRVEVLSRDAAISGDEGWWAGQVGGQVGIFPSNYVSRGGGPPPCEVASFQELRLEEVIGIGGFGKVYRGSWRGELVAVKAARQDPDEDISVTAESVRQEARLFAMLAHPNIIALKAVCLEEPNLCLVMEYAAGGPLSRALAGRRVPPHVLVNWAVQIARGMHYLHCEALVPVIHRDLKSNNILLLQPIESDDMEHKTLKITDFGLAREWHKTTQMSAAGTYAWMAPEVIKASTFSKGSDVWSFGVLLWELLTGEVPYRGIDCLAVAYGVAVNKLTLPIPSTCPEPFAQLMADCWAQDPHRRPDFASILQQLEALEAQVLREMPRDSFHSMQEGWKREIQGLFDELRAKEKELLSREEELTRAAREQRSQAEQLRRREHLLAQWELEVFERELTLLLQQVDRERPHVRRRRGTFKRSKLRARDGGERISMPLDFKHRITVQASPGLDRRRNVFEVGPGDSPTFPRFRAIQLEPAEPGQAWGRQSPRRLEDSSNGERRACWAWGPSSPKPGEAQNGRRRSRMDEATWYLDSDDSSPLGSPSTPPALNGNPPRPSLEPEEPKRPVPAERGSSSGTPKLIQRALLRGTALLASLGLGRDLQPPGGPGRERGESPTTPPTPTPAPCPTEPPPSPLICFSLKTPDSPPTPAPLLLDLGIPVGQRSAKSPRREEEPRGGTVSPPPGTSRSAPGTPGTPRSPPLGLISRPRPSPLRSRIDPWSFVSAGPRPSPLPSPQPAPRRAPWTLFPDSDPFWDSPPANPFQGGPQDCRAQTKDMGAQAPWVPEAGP
T9 sequence (P06241 whole entry): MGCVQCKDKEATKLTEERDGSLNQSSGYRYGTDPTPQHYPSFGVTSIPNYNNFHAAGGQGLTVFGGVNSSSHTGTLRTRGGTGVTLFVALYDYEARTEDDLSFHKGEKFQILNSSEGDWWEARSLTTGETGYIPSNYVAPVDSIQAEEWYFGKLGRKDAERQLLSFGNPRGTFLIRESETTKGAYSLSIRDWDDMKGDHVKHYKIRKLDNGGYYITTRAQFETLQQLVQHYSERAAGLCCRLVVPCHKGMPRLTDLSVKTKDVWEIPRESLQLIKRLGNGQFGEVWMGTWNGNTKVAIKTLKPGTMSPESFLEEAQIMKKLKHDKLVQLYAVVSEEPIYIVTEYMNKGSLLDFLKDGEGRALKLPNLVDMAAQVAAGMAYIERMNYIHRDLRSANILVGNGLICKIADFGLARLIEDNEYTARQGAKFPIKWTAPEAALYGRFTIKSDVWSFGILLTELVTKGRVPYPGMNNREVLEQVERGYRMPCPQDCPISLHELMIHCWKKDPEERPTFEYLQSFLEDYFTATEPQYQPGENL
T7 sequence (P35968 20-1356): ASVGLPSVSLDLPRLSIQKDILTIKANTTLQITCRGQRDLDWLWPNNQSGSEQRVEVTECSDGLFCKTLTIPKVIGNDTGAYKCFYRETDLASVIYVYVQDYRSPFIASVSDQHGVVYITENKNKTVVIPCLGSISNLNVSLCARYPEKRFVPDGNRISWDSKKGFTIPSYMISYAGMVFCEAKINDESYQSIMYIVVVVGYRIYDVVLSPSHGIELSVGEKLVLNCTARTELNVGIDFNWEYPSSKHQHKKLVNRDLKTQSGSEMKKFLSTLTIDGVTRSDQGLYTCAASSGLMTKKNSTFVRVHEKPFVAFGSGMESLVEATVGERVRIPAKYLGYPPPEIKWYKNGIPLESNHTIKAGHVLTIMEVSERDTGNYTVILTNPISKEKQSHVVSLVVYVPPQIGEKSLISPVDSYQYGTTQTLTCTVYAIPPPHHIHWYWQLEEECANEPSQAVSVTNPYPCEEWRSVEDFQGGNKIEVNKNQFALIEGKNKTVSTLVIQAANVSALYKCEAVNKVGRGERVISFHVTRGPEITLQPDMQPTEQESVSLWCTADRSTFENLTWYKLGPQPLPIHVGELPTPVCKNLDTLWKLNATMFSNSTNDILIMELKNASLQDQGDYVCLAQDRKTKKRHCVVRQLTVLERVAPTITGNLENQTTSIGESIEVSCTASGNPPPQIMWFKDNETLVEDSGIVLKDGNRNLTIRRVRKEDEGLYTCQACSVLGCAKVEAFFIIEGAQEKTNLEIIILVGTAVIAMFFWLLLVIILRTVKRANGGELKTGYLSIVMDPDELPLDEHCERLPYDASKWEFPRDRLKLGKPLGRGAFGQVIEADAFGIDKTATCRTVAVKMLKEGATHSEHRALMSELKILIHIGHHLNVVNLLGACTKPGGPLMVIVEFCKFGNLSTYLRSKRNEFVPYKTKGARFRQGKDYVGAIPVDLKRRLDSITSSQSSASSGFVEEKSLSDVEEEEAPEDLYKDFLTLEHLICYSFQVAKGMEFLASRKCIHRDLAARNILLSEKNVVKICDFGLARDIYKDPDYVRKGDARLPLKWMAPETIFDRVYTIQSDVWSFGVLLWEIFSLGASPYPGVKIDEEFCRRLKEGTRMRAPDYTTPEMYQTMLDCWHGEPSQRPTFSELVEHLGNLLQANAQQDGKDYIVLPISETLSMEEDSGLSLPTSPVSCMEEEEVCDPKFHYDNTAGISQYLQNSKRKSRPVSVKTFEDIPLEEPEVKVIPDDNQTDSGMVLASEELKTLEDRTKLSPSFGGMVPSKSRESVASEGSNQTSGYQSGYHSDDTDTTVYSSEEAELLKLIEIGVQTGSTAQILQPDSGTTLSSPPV
T20 sequence (P21802 22-821): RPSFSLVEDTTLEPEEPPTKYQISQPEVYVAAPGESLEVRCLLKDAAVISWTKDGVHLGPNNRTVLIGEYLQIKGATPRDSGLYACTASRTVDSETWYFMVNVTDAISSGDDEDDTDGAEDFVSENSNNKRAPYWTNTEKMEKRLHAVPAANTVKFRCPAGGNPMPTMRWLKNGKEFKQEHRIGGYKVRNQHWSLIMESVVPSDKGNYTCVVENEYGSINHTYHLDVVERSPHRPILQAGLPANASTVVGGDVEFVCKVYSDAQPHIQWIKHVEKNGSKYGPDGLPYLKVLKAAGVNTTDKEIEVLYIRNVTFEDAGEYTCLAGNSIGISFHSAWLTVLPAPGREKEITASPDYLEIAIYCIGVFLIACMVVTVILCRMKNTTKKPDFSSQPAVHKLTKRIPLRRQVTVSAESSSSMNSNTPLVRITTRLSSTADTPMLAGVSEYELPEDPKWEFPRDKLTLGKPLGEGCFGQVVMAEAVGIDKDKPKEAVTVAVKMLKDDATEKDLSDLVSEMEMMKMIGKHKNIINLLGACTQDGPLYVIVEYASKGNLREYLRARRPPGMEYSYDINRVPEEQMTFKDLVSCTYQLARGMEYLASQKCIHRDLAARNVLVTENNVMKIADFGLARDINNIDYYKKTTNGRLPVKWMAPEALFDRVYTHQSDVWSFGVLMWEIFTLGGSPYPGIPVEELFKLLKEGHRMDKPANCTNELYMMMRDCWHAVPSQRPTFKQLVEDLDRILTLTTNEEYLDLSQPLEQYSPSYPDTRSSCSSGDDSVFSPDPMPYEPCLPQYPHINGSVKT

## COc1cc(Nc2ncnc(Nc3cc4c(cn3)NC(=O)C(C)(C)O4)n2)cc(OC)c1OC [MT-SYK-03]
[1]
  remaining activity at 0.5 µM: 87%
[2]
  remaining activity at 0.5 µM: 63.4%
[3]; [27]
  remaining activity at 0.5 µM: 27%
[3]; [28]
  IC50: 67.2 nM
[4]; [27]
  remaining activity at 0.5 µM: 16.2%
[4]; [28]
  IC50: 23 nM and 23.4 nM
[5]
  remaining activity at 0.5 µM: 86%
[6]
  remaining activity at 0.5 µM: 100%
[7]
  Residual enzymatic activity: did not inhibit
[7]; [29]
  remaining activity at 0.5 µM: 88.6%
[8]; [27]
  remaining activity at 0.5 µM: 25.9%
[8]; [28]
  IC50: 34.7 nM
[9]; [27]
  remaining activity at 0.5 µM: 25.2%
[9]; [28]
  IC50: 20 nM
[10]
  remaining activity at 0.5 µM: 108%
[11]
  remaining activity at 0.5 µM: 97.9%
[12]
  remaining activity at 0.5 µM: 84.5%
[13]
  remaining activity at 0.5 µM: 100%
[14]
  remaining activity at 0.5 µM: 100%
[15]; [27]
  remaining activity at 0.5 µM: 31.4%
[15]; [28]
  IC50: 25.6 nM
[16]
  remaining activity at 0.5 µM: 95.6%
[17]
  remaining activity at 0.5 µM: 92.2%
[18]; [27]
  remaining activity at 0.5 µM: 23%
[18]; [28]
  IC50: 13.5 nM
[19]
  remaining activity at 0.5 µM: 94.3%
[20]
  Residual enzymatic activity: 65.1%
[20]; [29]
  remaining activity at 0.5 µM: > 54%
[21]
  remaining activity at 0.5 µM: 99.9%
[22]; [27]
  remaining activity at 0.5 µM: 12%
[22]; [28]
  IC50: 20 nM and 20.1 nM
[23]
  remaining activity at 0.5 µM: 92.6%
[24]
  remaining activity at 0.5 µM: 94.2%
[25]
  remaining activity at 0.5 µM: 74.4%
[26]
  Anti-IgM induced autophosphorylation of SYK and phosphorylation of CD19, BTK, ERK1/2 and JNK1/2: dose-dependently inhibited
